Earlier results, collected in publication PMC10323144, “Garbage in, garbage out: how reliable training data improved a virtual screening approach against SARS-CoV-2 MPro” (Frontiers in Pharmacology, 2023).
Counter-ions that a name gives are not always drawn.

System: MPro
Conditions: compiled from peer-reviewed sources (287 compounds) ref the 18 original articles; cited from earlier work

Structure (SMILES)	Class (MPro activity class)
COc1ccc(O)c(C=NN2C(=O)c3ccccc3NC2c2cc(OC)ccc2O)c1 (stereo not drawn) [QZ4]	1 (Compounds with IC50 < 10 µM or with a percentage of enzyme inhibition >50% at 10 µM were labelled as ACTIVE)
O=C1c2ccccc2NC(c2cc([N+](=O)[O-])ccc2O)N1N=Cc1cc([N+](=O)[O-])ccc1O (stereo not drawn) [QZ5]	0 (compounds with IC50 > 20 μM, percentage inhibition <80% at 20 µM or 50 μM, or percentage enzyme inhibition <50% at 10 µM were labelled as INACTIVE)
O=c1c(O)c(-c2ccc(O)c(O)c2)oc2cc(O)c(O)c(O)c12 [Quercetagetin]	1 (Compounds with IC50 < 10 µM or with a percentage of enzyme inhibition >50% at 10 µM were labelled as ACTIVE)
O=C(NC(Cc1cc(=O)[nH]c2ccccc12)C(=O)O)c1ccc(Cl)cc1 (stereo not drawn) [REBAMIPIDE]	0 (compounds with IC50 > 20 μM, percentage inhibition <80% at 20 µM or 50 μM, or percentage enzyme inhibition <50% at 10 µM were labelled as INACTIVE)
CN(C)C(=O)c1cc2cnc(Nc3ccc(N4CCNCC4)cn3)nc2n1C1CCCC1 [RIBOCICLIB]	0 (compounds with IC50 > 20 μM, percentage inhibition <80% at 20 µM or 50 μM, or percentage enzyme inhibition <50% at 10 µM were labelled as INACTIVE)
Cc1cc2nc3c(=O)[nH]c(=O)nc-3n(C[C@H](O)[C@H](O)[C@H](O)CO)c2cc1C [RIBOFLAVIN]	0 (compounds with IC50 > 20 μM, percentage inhibition <80% at 20 µM or 50 μM, or percentage enzyme inhibition <50% at 10 µM were labelled as INACTIVE)
CC(C)(C(=O)NCC(F)(F)C(F)(F)F)C(=O)N[C@@H]1C(=O)Nc2ccccc2-c2ccccc21 [RO4929097]	0 (compounds with IC50 > 20 μM, percentage inhibition <80% at 20 µM or 50 μM, or percentage enzyme inhibition <50% at 10 µM were labelled as INACTIVE)
Cc1nnc(C(=O)NC(C)(C)c2nc(C(=O)NCc3ccc(F)cc3)c(O)c(=O)n2C)o1 [Raltegravir]	0 (compounds with IC50 > 20 μM, percentage inhibition <80% at 20 µM or 50 μM, or percentage enzyme inhibition <50% at 10 µM were labelled as INACTIVE)
NC(=O)c1ncn([C@@H]2O[C@H](CO)[C@@H](O)[C@H]2O)n1 [Ribavirin]	0 (compounds with IC50 > 20 μM, percentage inhibition <80% at 20 µM or 50 μM, or percentage enzyme inhibition <50% at 10 µM were labelled as INACTIVE)
NC[C@H]1O[C@H](O[C@H]2[C@H](O[C@@H]3O[C@H](CO)[C@@H](O)[C@H]3O)[C@@H](O)[C@H](N)C[C@@H]2N)[C@H](N)[C@@H](O)[C@@H]1O [Ribostamycin]	0 (compounds with IC50 > 20 μM, percentage inhibition <80% at 20 µM or 50 μM, or percentage enzyme inhibition <50% at 10 µM were labelled as INACTIVE)
CC(C)c1nc(CN(C)C(=O)N[C@H](C(=O)N[C@@H](Cc2ccccc2)C[C@H](O)[C@H](Cc2ccccc2)NC(=O)OCc2cncs2)C(C)C)cs1 [Ritonavir]	0 (compounds with IC50 > 20 μM, percentage inhibition <80% at 20 µM or 50 μM, or percentage enzyme inhibition <50% at 10 µM were labelled as INACTIVE)
CCOC(=O)/C=C/[C@H](C[C@@H]1CCNC1=O)NC(=O)[C@@H](CC(=O)[C@@H](NC(=O)c1cc(C)on1)C(C)C)Cc1ccc(F)cc1 [Rupintrivir]	0 (compounds with IC50 > 20 μM, percentage inhibition <80% at 20 µM or 50 μM, or percentage enzyme inhibition <50% at 10 µM were labelled as INACTIVE)
N#CC[C@H](C1CCCC1)n1cc(-c2ncnc3[nH]ccc23)cn1 [Ruxolitinib]	0 (compounds with IC50 > 20 μM, percentage inhibition <80% at 20 µM or 50 μM, or percentage enzyme inhibition <50% at 10 µM were labelled as INACTIVE)
O=S(=O)(CC1CS1)c1ccc(Oc2ccccc2)cc1 (stereo not drawn) [SB-3CT]	0 (compounds with IC50 > 20 μM, percentage inhibition <80% at 20 µM or 50 μM, or percentage enzyme inhibition <50% at 10 µM were labelled as INACTIVE)
CC1(C)CN(C(=O)c2ccc(-c3cccc4nc(NC(=O)C5CC5)nn34)cc2)C1 [SOLCITINIB]	0 (compounds with IC50 > 20 μM, percentage inhibition <80% at 20 µM or 50 μM, or percentage enzyme inhibition <50% at 10 µM were labelled as INACTIVE)
O=C(CCl)N1CCN(Cc2cc(Cl)ccc2CNC(=O)N2CCOCC2)CC1 [STU-CHA-6cae54d3-1]	1 (Compounds with IC50 < 10 µM or with a percentage of enzyme inhibition >50% at 10 µM were labelled as ACTIVE)
N#C[C@@H]1C[C@@H]2C[C@@H]2N1C(=O)[C@@H](N)C12CC3CC(CC(O)(C3)C1)C2 [Saxagliptin]	0 (compounds with IC50 > 20 μM, percentage inhibition <80% at 20 µM or 50 μM, or percentage enzyme inhibition <50% at 10 µM were labelled as INACTIVE)
O=c1cc(-c2ccc(O)cc2)oc2cc(O)c(O)c(O)c12 [Scutellarein]	1 (Compounds with IC50 < 10 µM or with a percentage of enzyme inhibition >50% at 10 µM were labelled as ACTIVE)
O=C(O)[C@H]1O[C@@H](Oc2cc3oc(-c4ccc(O)cc4)cc(=O)c3c(O)c2O)[C@H](O)[C@@H](O)[C@@H]1O [Scutellarin]	0 (compounds with IC50 > 20 μM, percentage inhibition <80% at 20 µM or 50 μM, or percentage enzyme inhibition <50% at 10 µM were labelled as INACTIVE)
C=C[C@H]1[C@H](O[C@@H]2O[C@H](CO)[C@@H](O)[C@H](O)[C@H]2O)OC=C(C(=O)OC)[C@H]1CC(=O)O [Secoxyloganin]	0 (compounds with IC50 > 20 μM, percentage inhibition <80% at 20 µM or 50 μM, or percentage enzyme inhibition <50% at 10 µM were labelled as INACTIVE)

Structure (SMILES)	Class (MPro activity class)
CC(C)[C@H](O)C(=O)N[C@@H](C)C(=O)N[C@@H]1C(=O)N(C)CCc2ccccc21 [Semagacestat]	0 (compounds with IC50 > 20 μM, percentage inhibition <80% at 20 µM or 50 μM, or percentage enzyme inhibition <50% at 10 µM were labelled as INACTIVE)
N[C@@H](CC(=O)N1CCn2c(nnc2C(F)(F)F)C1)Cc1cc(F)c(F)cc1F [Sitagliptin]	0 (compounds with IC50 > 20 μM, percentage inhibition <80% at 20 µM or 50 μM, or percentage enzyme inhibition <50% at 10 µM were labelled as INACTIVE)
CC(C)OC(=O)[C@H](C)N[P@](=O)(OC[C@H]1O[C@@H](n2ccc(=O)[nH]c2=O)[C@](C)(F)[C@@H]1O)Oc1ccccc1 [Sofosbuvir]	0 (compounds with IC50 > 20 μM, percentage inhibition <80% at 20 µM or 50 μM, or percentage enzyme inhibition <50% at 10 µM were labelled as INACTIVE)
CCc1nc(-c2cccc(C)c2)c(-c2ccnc(NC(=O)c3ccccc3)c2)s1 [TAK-715]	0 (compounds with IC50 > 20 μM, percentage inhibition <80% at 20 µM or 50 μM, or percentage enzyme inhibition <50% at 10 µM were labelled as INACTIVE)
CC/C(=C(\c1ccccc1)c1ccc(OCCN(C)C)cc1)c1ccccc1 [TAMOXIFEN CITRATE]	0 (compounds with IC50 > 20 μM, percentage inhibition <80% at 20 µM or 50 μM, or percentage enzyme inhibition <50% at 10 µM were labelled as INACTIVE)
Nc1nc(N)c2nc(-c3cccc(O)c3)c(-c3cccc(O)c3)nc2n1 [TG100-115]	0 (compounds with IC50 > 20 μM, percentage inhibition <80% at 20 µM or 50 μM, or percentage enzyme inhibition <50% at 10 µM were labelled as INACTIVE)
Cc1ccncc1NC(=O)Cc1cc(Cl)cc(OC2CC(=O)N2)c1 (stereo not drawn) [TRY-UNI-2eddb1ff-7]	1 (Compounds with IC50 < 10 µM or with a percentage of enzyme inhibition >50% at 10 µM were labelled as ACTIVE)
Cc1ccncc1NC(=O)Cc1cccc(Cl)c1 [TRY-UNI-714a760b-6]	0 (compounds with IC50 > 20 μM, percentage inhibition <80% at 20 µM or 50 μM, or percentage enzyme inhibition <50% at 10 µM were labelled as INACTIVE)
Cc1ccncc1NC(=O)Cc1cccc(C#N)c1 [TRY-UNI-714a760b-20]	0 (compounds with IC50 > 20 μM, percentage inhibition <80% at 20 µM or 50 μM, or percentage enzyme inhibition <50% at 10 µM were labelled as INACTIVE)
CCC[C@H](NC(=O)[C@@H]1[C@H]2CCC[C@H]2CN1C(=O)[C@@H](NC(=O)[C@@H](NC(=O)c1cnccn1)C1CCCCC1)C(C)(C)C)C(=O)C(=O)NC1CC1 [Telaprevir]	0 (compounds with IC50 > 20 μM, percentage inhibition <80% at 20 µM or 50 μM, or percentage enzyme inhibition <50% at 10 µM were labelled as INACTIVE)
COc1cnc(-n2cnc(C)n2)c2[nH]cc(C(=O)C(=O)N3CCN(C(=O)c4ccccc4)CC3)c12 [Temsavir]	0 (compounds with IC50 > 20 μM, percentage inhibition <80% at 20 µM or 50 μM, or percentage enzyme inhibition <50% at 10 µM were labelled as INACTIVE)
C[C@H](Cn1cnc2c(N)ncnc21)OCP(=O)(O)O [Tenofovir]	0 (compounds with IC50 > 20 μM, percentage inhibition <80% at 20 µM or 50 μM, or percentage enzyme inhibition <50% at 10 µM were labelled as INACTIVE)
O=c1sn(-c2cccc3ccccc23)c(=O)n1Cc1ccccc1 [Tideglusib]	1 (Compounds with IC50 < 10 µM or with a percentage of enzyme inhibition >50% at 10 µM were labelled as ACTIVE)
CCC[C@@]1(CCc2ccccc2)CC(O)=C([C@H](CC)c2cccc(NS(=O)(=O)c3ccc(C(F)(F)F)cn3)c2)C(=O)O1 [Tipranavir]	0 (compounds with IC50 > 20 μM, percentage inhibition <80% at 20 µM or 50 μM, or percentage enzyme inhibition <50% at 10 µM were labelled as INACTIVE)
C[C@@H]1CCN(C(=O)CC#N)C[C@@H]1N(C)c1ncnc2[nH]ccc12 [Tofacitinib]	0 (compounds with IC50 > 20 μM, percentage inhibition <80% at 20 µM or 50 μM, or percentage enzyme inhibition <50% at 10 µM were labelled as INACTIVE)
Cn1c(=O)cc(N2CCC[C@@H](N)C2)n(Cc2cc(F)ccc2C#N)c1=O [Trelagliptin]	0 (compounds with IC50 > 20 μM, percentage inhibition <80% at 20 µM or 50 μM, or percentage enzyme inhibition <50% at 10 µM were labelled as INACTIVE)
C[C@]12CC[C@H]3[C@@H](CC[C@@]45O[C@@H]4C(O)=C(C#N)C[C@]35C)[C@@H]1CC[C@@H]2O [Trilostane]	0 (compounds with IC50 > 20 μM, percentage inhibition <80% at 20 µM or 50 μM, or percentage enzyme inhibition <50% at 10 µM were labelled as INACTIVE)
CC(C)CC(NC(=O)OCc1ccccc1)C(=O)NC(CC1CCNC1=O)C(=O)C(=O)NC1CC1 (stereo not drawn) [UAWJ246]	1 (Compounds with IC50 < 10 µM or with a percentage of enzyme inhibition >50% at 10 µM were labelled as ACTIVE)
O=C(NC(Cc1ccccc1)C(=O)NC(CC1CCNC1=O)C(O)S(=O)(=O)O)OCc1ccccc1 (stereo not drawn) [UAWJ247]	1 (Compounds with IC50 < 10 µM or with a percentage of enzyme inhibition >50% at 10 µM were labelled as ACTIVE)
